SMILES strings stand for the structures.

This assay concerns the target T1, GCase (Homo sapiens, UniProt P04062).
T1 construct: endogenous in cells; host or cells: HeLa cells
T1 sequence (P04062 40-536): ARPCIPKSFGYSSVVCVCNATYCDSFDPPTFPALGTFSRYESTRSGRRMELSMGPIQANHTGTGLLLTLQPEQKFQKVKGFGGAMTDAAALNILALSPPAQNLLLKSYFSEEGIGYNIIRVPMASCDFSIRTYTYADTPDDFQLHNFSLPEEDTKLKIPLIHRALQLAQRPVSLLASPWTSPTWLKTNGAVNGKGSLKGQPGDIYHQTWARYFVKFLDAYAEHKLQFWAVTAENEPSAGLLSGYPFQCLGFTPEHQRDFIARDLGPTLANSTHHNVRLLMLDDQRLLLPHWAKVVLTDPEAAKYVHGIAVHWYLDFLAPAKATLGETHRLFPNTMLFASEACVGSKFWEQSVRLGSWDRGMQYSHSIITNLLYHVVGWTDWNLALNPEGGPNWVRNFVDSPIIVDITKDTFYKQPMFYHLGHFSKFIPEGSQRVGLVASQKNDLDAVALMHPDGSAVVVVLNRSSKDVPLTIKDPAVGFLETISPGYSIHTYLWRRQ
Nature of the assay: activation of GCase in a live cell PFB assay in HELA cells. It is filed as cell-based.
In the case of `C[C@H](Oc1ccccc1C(F)(F)F)[C@@H]1CCCN(c2cnc3cnn(CC(F)F)c3n2)C1` (racemic) [Compound 5c], the EC50 is under 10 µM.

`CC1CC(COc2cccnc2C(F)(F)F)CN(c2cnc3cnn(CC(F)F)c3n2)C1` (single isomer, unassigned) [Compound 47b] gave an EC50 of under 10 µM.

As to `C[C@H]1C[C@@H](COc2cccnc2C(F)(F)F)CN(c2cnc3cnn(CC4COC4)c3n2)C1` (single isomer, unassigned) [Compound 233b], the concentration for a half-maximal effect (EC50) was under 10 µM.

With `CC1CC(COc2cccnc2C(F)(F)F)CN(C(=O)c2ccc3cc[nH]c3c2)C1` (single isomer, unassigned) [Compound 252b], the EC50 is under 10 µM.

The compound `CC1CC(COc2cccnc2C(F)(F)F)CN(c2cncc(-c3nncs3)n2)C1` (single isomer, unassigned) [Compound 262b] came in with an EC50 of under 10 µM.

Regarding `FC(F)Cn1ncc2ncc(N3C[C@@H]4[C@@H](COc5cccnc5C(F)(F)F)[C@@H]4C3)nc21` [Compound 1, (1R,5S,6S)-3-[1-(2,2-difluoroethyl)-1H-pyrazolo[3,4-b]pyrazin-6-yl]-6-({[2-(trifluoromethyl)pyridin-3-yl]oxy}methyl)-3-azabicyclo[3.1.0]hexane], the EC50 was under 10 µM.

`O=C(c1nnc(C2(c3ccccc3)CCCC2)o1)N1CCCC(COc2ccccc2)C1` (stereo not shown) [Compound 3, (3-(phenoxymethyl)piperidin-1-yl)(5-(1-phenylcyclopentyl)-1,3,4-oxadiazol-2-yl)methanone]: the EC50 is 10 to 50 µM.

With `C[C@@H](Oc1ccccc1C(F)(F)F)[C@@H]1CCCN(c2cnc3cnn(CC(F)F)c3n2)C1` [Compound 5b, 1-(2,2-difluoroethyl)-6-((R)-3-((R)-1-(2-(trifluoromethyl)phenoxy)ethyl)piperidin-1-yl)-1H-pyrazolo[3,4-b]pyrazine], the EC50 was in the range of 10 to 50 µM.

The compound `O=C(N1CCC(COc2cccc(C(F)(F)F)n2)C1)C1(c2ccccc2)CCOCC1` (stereo not shown) [Compound 6] registered an EC50 of under 10 µM.

As for `O=C(Cc1c[nH]c2ccccc12)N1CCC(Oc2ccc(C(F)(F)F)cn2)CC1` [Compound 7], the EC50 was in the range of 10 to 50 µM.

For the compound `O=C(c1cc(=O)c2cc(Cl)ccc2o1)N1CCCC(COc2ccccc2)C1` (stereo not shown) [Compound 8], the EC50 was in the range of 10 to 50 µM.

`CCCC(C(=O)N1CCCC(COc2ccccc2)C1)n1nccc1C1CC1` (stereo not shown) [Compound 9]: the half-maximal effective concentration (EC50) was in the range of 10 to 50 µM.

In turn, `O=C(N1CCCC(COc2ccccc2)C1)C12CCC(C(F)F)(CC1)C2` (stereo not shown) [Compound 10] had a half-maximal effective concentration (EC50) of 10 to 50 µM.

As to `O=C(c1ccn(Cc2ccccc2)n1)N1CCCC(COc2ccccc2)C1` (stereo not shown) [Compound 11], the EC50 was 10 to 50 µM.

Turning to `COc1ccc(OCCCC(=O)N2CCCC(COc3ccccc3)C2)cc1` (stereo not shown) [Compound 12], the EC50 fell in the range of 10 to 50 µM.

`FC(F)Cn1ncc2ncc(N3CCCC(COc4cccnc4C(F)(F)F)C3)nc21` (stereo not shown) [Compound 13, 3-({1-[1-(2,2-difluoroethyl)pyrazolo[3,4-b]pyrazin-6-yl]piperidin-3-yl}methoxy)-2-(trifluoromethyl)pyridine] yielded an EC50 of under 10 µM.

For `Cc1ccccc1CCC1CCCN(C(=O)c2cnn(-c3ccccc3)n2)C1` (stereo not shown) [Compound 15, (3-(2-methylphenethyl)piperidin-1-yl)(2-phenyl-2H-1,2,3-triazol-4-yl)methanone], the EC50 lay within 10 to 50 µM.

In turn, `CCn1ncc2ncc(N3CCCC(COc4ccccc4C(F)(F)F)C3)nc21` (stereo not shown) [Compound 16, 1-{1-ethylpyrazolo[3,4-b]pyrazin-6-yl}-3-[2-(trifluoromethyl)phenoxymethyl]piperidine] yielded an EC50 of 10 to 50 µM.

Regarding `O=C(c1ccc2ccn(CC3COC3)c2c1)N1CCC[C@H](CCc2ccccc2C(F)(F)F)C1` [Compound 18, 1-[(oxetan-3-yl)methyl]-6-[(3S)-3-{2-[2-(trifluoromethyl)phenyl]ethyl}piperidine-1-carbonyl]-1H-indole], the EC50 lay within 10 to 50 µM.

`O=C(c1ccc2ccn(C3COC3)c2c1)N1CCC[C@H](CCc2ccccc2C(F)(F)F)C1` [Compound 19, 1-(oxetan-3-yl)-6-[(3S)-3-{2-[2-(trifluoromethyl)phenyl]ethyl}piperidine-1-carbonyl]-1H-indole]: the EC50 was 10 to 50 µM.

Take `FC(F)Cn1ncc2ncc(N3CCC(F)(F)C(COc4cccnc4C(F)(F)F)C3)nc21` (stereo not shown) [Compound 20, 3-({1-[1-(2,2-difluoroethyl)-1H-pyrazolo[3,4-b]pyrazin-6-yl]-4,4-difluoropiperidin-3-yl}methoxy)-2-(trifluoromethyl)pyridine]: the EC50 was under 10 µM.

For the compound `FC(F)Cn1ncc2ncc(N3CC(COc4cccnc4C(F)(F)F)CC(F)(F)C3)nc21` (stereo not shown) [Compound 21, 3-({1-[1-(2,2-difluoroethyl)-1H-pyrazolo[3,4-b]pyrazin-6-yl]-5,5-difluoropiperidin-3-yl}methoxy)-2-(trifluoromethyl)pyridine], the EC50 was in the range of 10 to 50 µM.

Compound `O=C(c1cnn(-c2ccccc2F)n1)N1CCCC(COc2ccccc2)C1` (stereo not shown) [Compound 22, (2-(2-Fluorophenyl)-2H-1,2,3-triazol-4-yl)(3-(phenoxymethyl)piperidin-1-yl)methanone] showed a half-maximal effective concentration (EC50) of 10 to 50 µM.

In turn, `Cc1ccccc1OCC1CCCN(c2cnc3cnn(-c4nncs4)c3n2)C1` (stereo not shown) [Compound 23, 2-(6-(3-((o-Tolyloxy)methyl)piperidin-1-yl)-1H-pyrazolo[3,4-b]pyrazin-1-yl)-1,3,4-thiadiazole] displayed a concentration for a half-maximal effect (EC50) of 10 to 50 µM.

`CC(C)(c1ccccc1)c1nnc(C(=O)N2CCCC(COc3ccccc3)C2)o1` (stereo not shown) [Compound 24, (3-(Phenoxymethyl)piperidin-1-yl)(5-(2-phenylpropan-2-yl)-1,3,4-oxadiazol-2-yl)methanone] displayed a concentration for a half-maximal effect (EC50) of 10 to 50 µM.

For the compound `Cc1ccccc1OCC1CCCN(C(=O)c2cnn3c(-c4ccccc4)ccc(Cl)c23)C1` (stereo not shown) [Compound 25, (4-Chloro-7-phenylpyrazolo[1,5-a]pyridin-3-yl)(3-((o-tolyloxy)methyl)piperidin-1-yl)methanone], the EC50 fell in the range of 10 to 50 µM.

In the case of `CC(Oc1cccnc1C(F)(F)F)C1CCCN(c2cnc3cnn(CC(F)F)c3n2)C1` (stereo not shown) [Compound 26, 1-(2,2-Difluoroethyl)-6-(3-(1-((2-(trifluoromethyl)pyridin-3-yl)oxy)ethyl)piperidin-1-yl)-1H-pyrazolo[3,4-b]pyrazine], the EC50 was under 10 µM.

On to `CCn1c(-c2nncs2)nc2ncc(N3CCCC(COc4ccccc4C)C3)nc21` (stereo not shown) [Compound 30, 2-(1-Ethyl-6-(3-((o-tolyloxy)methyl)piperidin-1-yl)-1H-imidazo[4,5-b]pyrazin-2-yl)-1,3,4-thiadiazole], for which the EC50 is over 100 µM.

In turn, `CC1CCC(COc2cccnc2C(F)(F)F)CN1c1cnc2cnn(CC(F)F)c2n1` (stereo not shown) [Compound 31, 1-(2,2-Difluoroethyl)-6-(2-methyl-5-(((2-(trifluoromethyl)pyridin-3-yl)oxy)methyl)piperidin-1-yl)-1H-pyrazolo[3,4-b]pyrazine] had an EC50 of under 10 µM.

In turn, `Cn1c(-c2ccccc2)cc2ncc(N3CCCC(COc4cccnc4C(F)(F)F)C3)nc21` (stereo not shown) [Compound 33, 5-Methyl-6-phenyl-3-(3-(((2-(trifluoromethyl)pyridin-3-yl)oxy)methyl)piperidin-1-yl)-5H-pyrrolo[2,3-b]pyrazine] had an EC50 of 10 to 50 µM.

As to `FC(F)Cn1ncc2ncc(N3CCCC(F)(COc4cccnc4C(F)(F)F)C3)nc21` (stereo not shown) [Compound 35, 3-({1-[1-(2,2-Difluoroethyl)-1H-pyrazolo[3,4-b]pyrazin-6-yl]-3-fluoropiperidin-3-yl}methoxy)-2-(trifluoromethyl)pyridine], the EC50 was in the range of 10 to 50 µM.

The compound `FC(F)Cn1ncc2ncc(N3C[C@@H]4[C@@H](COc5cccc(C(F)(F)F)n5)[C@@H]4C3)nc21` [Compound 36, (1R,5S,6S)-3-[1-(2,2-Difluoroethyl)-1H-pyrazolo[3,4-b]pyrazin-6-yl]-6-({[6-(trifluoromethyl)pyridin-2-yl]oxy}methyl)-3-azabicyclo[3.1.0]hexane] displayed an EC50 of 10 to 50 µM.

Regarding `Cc1ccccc1OCC1CCCN(C(=O)c2cn(C)c3ccn(-c4ccccc4)c(=O)c23)C1` (stereo not shown) [Compound 38, 1-Methyl-5-phenyl-3-(3-((o-tolyloxy)methyl)piperidine-1-carbonyl)-1,5-dihydro-4H-pyrrolo[3,2-c]pyridin-4-one], the EC50 lay in the range of 10 to 50 µM.

On to `FC(F)(F)c1ncccc1OC[C@@H]1[C@H]2CN(c3cncc(-c4nncs4)n3)C[C@@H]12` [Compound 40, (1R,5S,6S)-3-[6-(1,3,4-Thiadiazol-2-yl)pyrazin-2-yl]-6-({[2-(trifluoromethyl)pyridin-3-yl]oxy}methyl)-3-azabicyclo[3.1.0]hexane], for which the EC50 lay in the range of 10 to 50 µM.

`CC(=O)N1CCC(c2cc3nc(N4CCCC(COc5ccccc5)C4)cnc3n2C)CC1` (stereo not shown) [Compound 41, 1-(4-{5-Methyl-2-[3-(phenoxymethyl)piperidin-1-yl]-5H-pyrrolo[2,3-b]pyrazin-6-yl}piperidin-1-yl)ethan-1-one] came in with an EC50 of over 100 µM.

Consider `FC(F)Cn1ncc2ncc(N3CCC(F)(F)C(COc4cccc(C(F)(F)F)n4)C3)nc21` (stereo not shown) [Compound 42, 2-({1-[1-(2,2-Difluoroethyl)-1H-pyrazolo[3,4-b]pyrazin-6-yl]-4,4-difluoropiperidin-3-yl}methoxy)-6-(trifluoromethyl)pyridine], for which the EC50 was 10 to 50 µM.

Regarding `FC(F)Cn1ncc2ncc(N3CCCC(F)(COc4cccc(C(F)(F)F)n4)C3)nc21` (stereo not shown) [Compound 43, 2-({1-[1-(2,2-Difluoroethyl)-1H-pyrazolo[3,4-b]pyrazin-6-yl]-3-fluoropiperidin-3-yl}methoxy)-6-(trifluoromethyl)pyridine], the EC50 is 10 to 50 µM.

Usually EC50 stands for the concentration giving half of the maximal effect. A lower EC50 goes with greater potency.

These data come from patent US20240262832A1, “SMALL MOLECULE MODULATORS OF GLUCOCEREBROSIDASE ACTIVITY AND USES THEREOF” (Vanqua Bio, Inc., priority 2021, published 2024).
